This is an account of results in patent US20130225694A1, “COMPOSITIONS AND METHODS OF INHIBITING RETINAL DEGENERATION” (Oklahoma Medical Research Foundation, priority 2012, published 2013).

Data set [1] relates to retinal retinol dehydrogenases (RDHs). The experiment in a line: Assay for retinal RDH activity in mouse retinal microsomes. The format is biochemical. The note with it: 2 mM PBN, NADPH-dependent reduction of all-trans-retinal. The procedure: Assay for retinal RDH activity—The effect of PBN on retinal dehydrogenase (RDH) enzymes was determined in vitro using mouse retinal microsomes. […] Homogenates were centrifuged at 10,000 g for 10 minutes at 4° C. The resulting supernatants were then centrifuged at 100,000 g for 1 hour at 4° C., and microsomal pellets were resuspended in storage buffer [50 mM Tris-Cl (pH 7.2), 1 mM EDTA, 20% glycerol, 1 mM dithiothreitol, and the protease inhibitors described above]. Protein concentrations were measured, and microsomal fractions were stored at −80° C. after snap freezing in liquid nitrogen.
Reactions were carried out in 1 ml reaction buffer [100 mM Tris-HCl (pH 7.2), 200 mM NaCl, 1 mM dithiothreitol, 2 mg/ml bovine serum albumin, and 1% (v/v) glycerol] with 5 μg of microsomes, 0 or 75 μM of NADPH, 0 or 2 mM PBN, and increasing concentrations of the substrate all-trans-retinal. […] Retinoids were extracted with 2 volumes of hexane and analyzed by HPLC. […] The peaks of all-trans-retinal (substrate) and all-trans-retinol (product of the reaction) were identified and quantified by comparison with pure retinoid isomeric standards. […] For each condition the non-enzymatic conversion of all-trans-retinal to all-trans-retinol measured in absence of NADPH was subtracted from the conversion obtained with NADPH to determine the NADPH-dependant activity of retinal RDHs. […]

The test system of a further data set is Rat Retina. The experiment in a line: Light-induced retinal degeneration in rats, systemic (IP) nitrone; ERG and ONL histology. Particulars: rat, in vivo. On the procedure:
Consistent with previous publications (1-2,5), a dose of 50 mg/kg PBN and S-PBN dissolved in saline was chosen for intraperitoneal injection in the rats in the treatment group. An equal volume of saline was injected into control rats.
A light-stress paradigm of 2,700 lux for 6 hours was used to test the effect of PBN at different time points before (0.5 hour, 3 hours, 6 hours, 12 hours, 16 hours, and 24 hours) or after (0.5 hour and 3 hours) light exposure. The effect of S-PBN was tested using the same dose and protocol of PBN at 0.5 hours before light exposure.
Electroretinography—After light exposure, rats were returned to their dim cyclic light (5-10 lux) environment for 7 days before ERG recordings were performed. Flash ERGs were recorded with the Diagnosys Espion E2 ERG System (Diagnosys, LLC, Lowell, Mass.). Rats were maintained in total darkness overnight and prepared for ERG recording under dim red light. They were anesthetized with ketamine (120 mg/kg body weight) and xylazine (6 mg/kg body weight) intramuscularly (IM). One drop of 10% (v/v) phenylephrine was applied to the cornea to dilate the pupil, and one drop of 0.5% (v/v) proparacaine HCl was applied for local anesthesia. Rats were kept on a heating pad at 37° C. during recordings. A gold electrode was placed on the cornea, a reference electrode was positioned in the mouth, and a ground electrode was placed on the foot; rats were then placed inside a Ganzfeld illuminating sphere. Responses were differentially amplified, averaged, and stored. For the assessment of rod photoreceptor function (scotopic ERG), five strobe flash stimuli were presented at flash intensities at −2.3, −1.3, 0.7, and 2.7 log cd·s/m^2. The amplitude of the a-wave was measured from the pre-stimulus baseline to the a-wave trough. The amplitude of the b-wave was measured from the trough of the a-wave to the peak of the b-wave. For the evaluation of cone function (photopic ERG), a strobe flash stimulus (3.3 log cd·s/m^2) was presented to dilated, light-adapted (5 minutes at 1.7 log cd·s/m^2) rats. The amplitude of the cone b-wave was measured from the trough of the a-wave to the peak of the b-wave.
Histology—After ERG recordings, rats were killed by carbon dioxide asphyxiation for light microscopic evaluation of retinal structure. Immediately after death, eyes were excised, placed in fixative (4% (w/v) paraformaldehyde, 2% (v/v) trichloroacetic acid, 20% (v/v) isopropyl alcohol, 2% (v/v) zinc chloride, and 72% (v/v) distilled water), and embedded in paraffin. Sections of 5 μm were cut along the vertical meridian through the optic nerve and stained with hematoxylin and eosin (H&E).
The PBN derivatives were injected intraperitoneally (IP) into albino SD rats at 50 mg/kg body weight at 0.5 hours before the start of light-damage exposure at 2,700 lux for 6 hours. After the exposure, the rats were moved to their dim cyclic room to recover for a week. Retinal damage/protection was assessed by functional analysis by ERG and structural analysis of histological sections. Dark adapted (12 hour) and Light adapted (for 2 hour) retinas were utilized as controls.

Another data set has as its system rod photoreceptors. The experiment in a line: Recovery of rod photoresponses after bleaching (dark adaptation ERG) in rats. The format is in vivo, rat. Particulars: 50 mg/kg IP. On the procedure:
Possible defects in the visual cycle were analyzed by measuring the time course of dark adaptation (recovery of rod photoreceptor sensitivity) following a bleaching light exposure. Rats were fully dark-adapted and injected intraperitoneally with PBN (50 mg/kg) or saline. Full-field scotopic ERGs for both eyes were recorded after 3 hours of PBN injection. A single test flash of 2.3 log cd·s/m^2 was presented to elicit the rod a-wave response under fully dark-adapted conditions. Rats were then exposed to a steady field of log 2.3 cd·s/m^2 for 2 minutes in the Ganzfeld dome to bleach rod photoreceptors. Immediately following the bleaching period (time=0 minutes) and every 10 minutes thereafter (time=10, 20, 30, 40, 50, and 60 minutes), the same test flash of 2.3 log cd·s/m^2 was presented. The a-wave responses at the indicated times after bleaching were normalized to the initial dark-adapted response for each rat.
Effect of PBN on the rate of recovery of rod photoresponses: dark adaptation ERG—The damaging effect of bright light requires a functional rhodopsin photopigment (23). It is well established that PBN protects against light damage (1), and the inventors previously speculated that PBN, as part of its protective mechanism, might down-regulate rhodopsin regeneration rate (2). […]

For `CC(C)(C)/[N+]([O-])=C/c1ccccc1` [Compound 1, α-phenyl-N-tert-butyl nitrone], the “inhibition of retinal RDH activity” value in data set [1] is “did not inhibit”. Also, in the data set on Rat Retina, the “% Protection (ONL, Inferior retina)” value stood at 85.0%; the “% Protection (ONL, Superior retina)” value turned out to be 87.1%; the “retention of photoreceptor cells” value is on record as “approximately 90%”. Moreover, the “fully dark-adapted a-wave response” value in the data set with rod photoreceptors (2.3 log cd·s/m^2 test flash before bleach, n=4) is −441.5±70.66 μV. The “recovery of the initial fully dark-adapted rod response” value in the data set with rod photoreceptors (40 minutes after the bleaching illumination) stood at 25%.
